{"source": "patent US20260130395A1", "about": "“Water Dispersible Botanical Compositions” (Aquila Black Limited, priority 2021, published 2026)", "test": "Stability of cannabinoid compounds and Vitamin E components in Beverage 1 (AB White) by LCMSMS", "type": "physicochemical", "conditions": "for Stability of Plant-Derived Cannabinoid Compounds in AB White, 8° C.: AB White stored at 8° C.; for Stability of Plant-Derived Cannabinoid Compounds in AB White, 21-25° C.: AB White stored at 21-25° C."}
{"smiles": "CCCCCc1cc2c(c(O)c1C(=O)O)[C@@H]1C=C(C)CC[C@H]1C(C)(C)O2", "note": "[D9 THCA, delta-9-tetrahydrocannabinolic acid]", "values": [{"measurement": "Stability of Plant-Derived Cannabinoid Compounds in AB White, 8° C.", "setting": "0 days", "result": 0.950, "unit": "µg/mL"}, {"measurement": "Stability of Plant-Derived Cannabinoid Compounds in AB White, 8° C.", "setting": "1 days", "result": 0.956, "unit": "µg/mL"}, {"measurement": "Stability of Plant-Derived Cannabinoid Compounds in AB White, 8° C.", "setting": "2 days", "result": 0.954, "unit": "µg/mL"}, {"measurement": "Stability of Plant-Derived Cannabinoid Compounds in AB White, 8° C.", "setting": "3 days", "result": 0.934, "unit": "µg/mL"}, {"measurement": "Stability of Plant-Derived Cannabinoid Compounds in AB White, 8° C.", "setting": "5 days", "result": 0.956, "unit": "µg/mL"}, {"measurement": "Stability of Plant-Derived Cannabinoid Compounds in AB White, 8° C.", "setting": "8 days", "result": 0.949, "unit": "µg/mL"}, {"measurement": "Stability of Plant-Derived Cannabinoid Compounds in AB White, 8° C.", "setting": "9 days", "result": 0.937, "unit": "µg/mL"}, {"measurement": "Stability of Plant-Derived Cannabinoid Compounds in AB White, 8° C.", "setting": "10 days", "result": 0.960, "unit": "µg/mL"}, {"measurement": "Stability of Plant-Derived Cannabinoid Compounds in AB White, 8° C.", "setting": "11 days", "result": 0.929, "unit": "µg/mL"}, {"measurement": "Stability of Plant-Derived Cannabinoid Compounds in AB White, 8° C.", "setting": "12 days", "result": 0.942, "unit": "µg/mL"}, {"measurement": "Stability of Plant-Derived Cannabinoid Compounds in AB White, 8° C.", "setting": "15 days", "result": 0.944, "unit": "µg/mL"}, {"measurement": "Stability of Plant-Derived Cannabinoid Compounds in AB White, 8° C.", "setting": "16 days", "result": 0.932, "unit": "µg/mL"}, {"measurement": "Stability of Plant-Derived Cannabinoid Compounds in AB White, 8° C.", "setting": "17 days", "result": 0.951, "unit": "µg/mL"}, {"measurement": "Stability of Plant-Derived Cannabinoid Compounds in AB White, 8° C.", "setting": "18 days", "result": 0.950, "unit": "µg/mL"}, {"measurement": "Stability of Plant-Derived Cannabinoid Compounds in AB White, 8° C.", "setting": "19 days", "result": 0.959, "unit": "µg/mL"}, {"measurement": "Stability of Plant-Derived Cannabinoid Compounds in AB White, 8° C.", "setting": "22 days", "result": 0.960, "unit": "µg/mL"}, {"measurement": "Stability of Plant-Derived Cannabinoid Compounds in AB White, 8° C.", "setting": "23 days", "result": 0.931, "unit": "µg/mL"}, {"measurement": "Stability of Plant-Derived Cannabinoid Compounds in AB White, 8° C.", "setting": "24 days", "result": 0.926, "unit": "µg/mL"}, {"measurement": "Stability of Plant-Derived Cannabinoid Compounds in AB White, 8° C.", "setting": "25 days", "result": 0.957, "unit": "µg/mL"}, {"measurement": "Stability of Plant-Derived Cannabinoid Compounds in AB White, 8° C.", "setting": "26 days", "result": 0.956, "unit": "µg/mL"}, {"measurement": "Stability of Plant-Derived Cannabinoid Compounds in AB White, 8° C.", "setting": "29 days", "result": 0.939, "unit": "µg/mL"}, {"measurement": "Stability of Plant-Derived Cannabinoid Compounds in AB White, 8° C.", "setting": "30 days", "result": 0.955, "unit": "µg/mL"}, {"measurement": "Stability of Plant-Derived Cannabinoid Compounds in AB White, 8° C.", "setting": "60 days", "result": 0.914, "unit": "µg/mL"}, {"measurement": "Stability of Plant-Derived Cannabinoid Compounds in AB White, 8° C.", "setting": "90 days", "result": 0.948, "unit": "µg/mL"}, {"measurement": "Stability of Plant-Derived Cannabinoid Compounds in AB White, 8° C.", "setting": "120 days", "result": 0.932, "unit": "µg/mL"}, {"measurement": "Stability of Plant-Derived Cannabinoid Compounds in AB White, 8° C.", "setting": "150 days", "result": 0.952, "unit": "µg/mL"}, {"measurement": "Stability of Plant-Derived Cannabinoid Compounds in AB White, 8° C.", "setting": "180 days", "result": 0.941, "unit": "µg/mL"}, {"measurement": "Stability of Plant-Derived Cannabinoid Compounds in AB White, 8° C.", "setting": "210 days", "result": 0.923, "unit": "µg/mL"}, {"measurement": "Stability of Plant-Derived Cannabinoid Compounds in AB White, 8° C.", "setting": "240 days", "result": 0.932, "unit": "µg/mL"}, {"measurement": "Stability of Plant-Derived Cannabinoid Compounds in AB White, 8° C.", "setting": "270 days", "result": 0.933, "unit": "µg/mL"}, {"measurement": "Stability of Plant-Derived Cannabinoid Compounds in AB White, 8° C.", "setting": "300 days", "result": 0.939, "unit": "µg/mL"}, {"measurement": "Stability of Plant-Derived Cannabinoid Compounds in AB White, 8° C.", "setting": "330 days", "result": 0.909, "unit": "µg/mL"}, {"measurement": "Stability of Plant-Derived Cannabinoid Compounds in AB White, 8° C.", "setting": "360 days", "result": 0.913, "unit": "µg/mL"}, {"measurement": "Stability of Plant-Derived Cannabinoid Compounds in AB White, 8° C.", "setting": "390 days", "result": 0.923, "unit": "µg/mL"}, {"measurement": "Stability of Plant-Derived Cannabinoid Compounds in AB White, 8° C.", "setting": "420 days", "result": 0.916, "unit": "µg/mL"}, {"measurement": "Stability of Plant-Derived Cannabinoid Compounds in AB White, 8° C.", "setting": "450 days", "result": 0.923, "unit": "µg/mL"}, {"measurement": "Stability of Plant-Derived Cannabinoid Compounds in AB White, 8° C.", "setting": "480 days", "result": 0.905, "unit": "µg/mL"}, {"measurement": "Stability of Plant-Derived Cannabinoid Compounds in AB White, 8° C.", "setting": "510 days", "result": 0.873, "unit": "µg/mL"}, {"measurement": "Stability of Plant-Derived Cannabinoid Compounds in AB White, 8° C.", "setting": "540 days", "result": 0.877, "unit": "µg/mL"}, {"measurement": "Stability of Plant-Derived Cannabinoid Compounds in AB White, 8° C.", "setting": "570 days", "result": 0.872, "unit": "µg/mL"}, {"measurement": "Stability of Plant-Derived Cannabinoid Compounds in AB White, 21-25° C.", "setting": "0 days", "result": 0.950, "unit": "µg/mL"}, {"measurement": "Stability of Plant-Derived Cannabinoid Compounds in AB White, 21-25° C.", "setting": "1 days", "result": 0.960, "unit": "µg/mL"}, {"measurement": "Stability of Plant-Derived Cannabinoid Compounds in AB White, 21-25° C.", "setting": "2 days", "result": 0.938, "unit": "µg/mL"}, {"measurement": "Stability of Plant-Derived Cannabinoid Compounds in AB White, 21-25° C.", "setting": "3 days", "result": 0.920, "unit": "µg/mL"}, {"measurement": "Stability of Plant-Derived Cannabinoid Compounds in AB White, 21-25° C.", "setting": "5 days", "result": 0.958, "unit": "µg/mL"}, {"measurement": "Stability of Plant-Derived Cannabinoid Compounds in AB White, 21-25° C.", "setting": "8 days", "result": 0.937, "unit": "µg/mL"}, {"measurement": "Stability of Plant-Derived Cannabinoid Compounds in AB White, 21-25° C.", "setting": "9 days", "result": 0.926, "unit": "µg/mL"}, {"measurement": "Stability of Plant-Derived Cannabinoid Compounds in AB White, 21-25° C.", "setting": "10 days", "result": 0.935, "unit": "µg/mL"}, {"measurement": "Stability of Plant-Derived Cannabinoid Compounds in AB White, 21-25° C.", "setting": "11 days", "result": 0.949, "unit": "µg/mL"}, {"measurement": "Stability of Plant-Derived Cannabinoid Compounds in AB White, 21-25° C.", "setting": "12 days", "result": 0.935, "unit": "µg/mL"}, {"measurement": "Stability of Plant-Derived Cannabinoid Compounds in AB White, 21-25° C.", "setting": "15 days", "result": 0.948, "unit": "µg/mL"}, {"measurement": "Stability of Plant-Derived Cannabinoid Compounds in AB White, 21-25° C.", "setting": "16 days", "result": 0.921, "unit": "µg/mL"}, {"measurement": "Stability of Plant-Derived Cannabinoid Compounds in AB White, 21-25° C.", "setting": "17 days", "result": 0.919, "unit": "µg/mL"}, {"measurement": "Stability of Plant-Derived Cannabinoid Compounds in AB White, 21-25° C.", "setting": "18 days", "result": 0.928, "unit": "µg/mL"}, {"measurement": "Stability of Plant-Derived Cannabinoid Compounds in AB White, 21-25° C.", "setting": "19 days", "result": 0.917, "unit": "µg/mL"}, {"measurement": "Stability of Plant-Derived Cannabinoid Compounds in AB White, 21-25° C.", "setting": "22 days", "result": 0.947, "unit": "µg/mL"}, {"measurement": "Stability of Plant-Derived Cannabinoid Compounds in AB White, 21-25° C.", "setting": "23 days", "result": 0.924, "unit": "µg/mL"}, {"measurement": "Stability of Plant-Derived Cannabinoid Compounds in AB White, 21-25° C.", "setting": "24 days", "result": 0.927, "unit": "µg/mL"}, {"measurement": "Stability of Plant-Derived Cannabinoid Compounds in AB White, 21-25° C.", "setting": "25 days", "result": 0.948, "unit": "µg/mL"}, {"measurement": "Stability of Plant-Derived Cannabinoid Compounds in AB White, 21-25° C.", "setting": "26 days", "result": 0.921, "unit": "µg/mL"}]}
